± gives the expanded uncertainty stated by the source.
Key:
[1] = refractive index (Na D-line) (dimensionless); xn = mol fraction of the nth substance listed; conditions: 101 kPa, Liquid
[2] = xn = mol fraction of the nth substance listed; conditions: 101 kPa, Liquid; for speed of sound: Sing-around technique in a fixed-path interferometer

CCCCC(CC)CO (stereo not given) [2-ethyl-1-hexanol] + c1ccccc1
Conditions | mass density, [2] [kg/m3] | refractive index, [1] | speed of sound, [2] [m/s] | viscosity, [2] [mPa·s]
298.15 K, x2 = 0 | 829.07 ± 0.82 | 1.4287 ± 0.0019 | 1319 ± 10 | 8.418 ± 0.65
298.15 K, x2 = 0.0606 | 829.89 ± 0.81 | 1.4332 ± 0.0019 | 1313 ± 10 | 7.185 ± 0.57
298.15 K, x2 = 0.1203 | 830.77 ± 0.81 | 1.4376 ± 0.0019 | 1308 ± 10 | 6.102 ± 0.5
298.15 K, x2 = 0.1798 | 831.79 ± 0.8 | 1.4418 ± 0.0019 | 1304 ± 10 | 5.153 ± 0.45
298.15 K, x2 = 0.2384 | 832.95 ± 0.8 | 1.4463 ± 0.0019 | 1299 ± 10 | 4.364 ± 0.38
298.15 K, x2 = 0.3132 | 834.73 ± 0.79 | 1.4519 ± 0.0019 | 1293 ± 10 | 3.469 ± 0.31
298.15 K, x2 = 0.3915 | 836.9 ± 0.78 | 1.4577 ± 0.0019 | 1288 ± 10 | 2.697 ± 0.24
298.15 K, x2 = 0.4515 | 838.87 ± 0.78 | 1.4624 ± 0.0019 | 1283 ± 10 | 2.222 ± 0.2
298.15 K, x2 = 0.526 | 841.73 ± 0.77 | 1.468 ± 0.0019 | 1278 ± 10 | 1.749 ± 0.16
298.15 K, x2 = 0.5849 | 844.27 ± 0.76 | 1.4726 ± 0.0019 | 1275 ± 10 | 1.474 ± 0.14
298.15 K, x2 = 0.6557 | 847.83 ± 0.74 | 1.4778 ± 0.0019 | 1273 ± 10 | 1.202 ± 0.12
298.15 K, x2 = 0.726 | 851.85 ± 0.73 | 1.4829 ± 0.0019 | 1272 ± 10 | 1.008 ± 0.1
298.15 K, x2 = 0.7937 | 856.26 ± 0.72 | 1.4877 ± 0.0019 | 1273 ± 10 | 0.866 ± 0.087
298.15 K, x2 = 0.8592 | 861.07 ± 0.7 | 1.492 ± 0.0019 | 1276 ± 10 | 0.764 ± 0.078
298.15 K, x2 = 0.9299 | 867.04 ± 0.68 | 1.4953 ± 0.0019 | 1284 ± 10 | 0.68 ± 0.071
303.15 K, x2 = 0 | 825.39 ± 0.83 | 1.4266 ± 0.0019 | 1301 ± 10 | 7.144 ± 0.57
303.15 K, x2 = 0.0606 | 826.11 ± 0.82 | 1.4312 ± 0.0019 | 1297 ± 10 | 5.969 ± 0.5
303.15 K, x2 = 0.1203 | 826.92 ± 0.82 | 1.4355 ± 0.0019 | 1292 ± 10 | 4.984 ± 0.43
303.15 K, x2 = 0.1798 | 827.89 ± 0.82 | 1.4397 ± 0.0019 | 1287 ± 10 | 4.114 ± 0.36
303.15 K, x2 = 0.2384 | 828.98 ± 0.81 | 1.4442 ± 0.0019 | 1282 ± 10 | 3.409 ± 0.3
303.15 K, x2 = 0.3132 | 830.66 ± 0.8 | 1.4499 ± 0.0019 | 1275 ± 10 | 2.624 ± 0.24
303.15 K, x2 = 0.3915 | 832.74 ± 0.8 | 1.4557 ± 0.0019 | 1269 ± 10 | 2.002 ± 0.18
303.15 K, x2 = 0.4515 | 834.63 ± 0.79 | 1.4604 ± 0.0019 | 1264 ± 10 | 1.621 ± 0.15
303.15 K, x2 = 0.526 | 837.35 ± 0.78 | 1.4661 ± 0.0019 | 1258 ± 10 | 1.305 ± 0.12
303.15 K, x2 = 0.5849 | 839.78 ± 0.77 | 1.4708 ± 0.0019 | 1255 ± 10 | 1.127 ± 0.11
303.15 K, x2 = 0.6557 | 843.22 ± 0.76 | 1.4761 ± 0.0019 | 1252 ± 10 | 0.953 ± 0.095
303.15 K, x2 = 0.726 | 847.09 ± 0.75 | 1.4811 ± 0.0019 | 1252 ± 10 | 0.852 ± 0.086
303.15 K, x2 = 0.7937 | 851.36 ± 0.73 | 1.4858 ± 0.0019 | 1253 ± 10 | 0.758 ± 0.078
303.15 K, x2 = 0.8592 | 856.01 ± 0.72 | 1.4899 ± 0.0019 | 1256 ± 10 | 0.701 ± 0.073
303.15 K, x2 = 0.9299 | 861.77 ± 0.7 | 1.4934 ± 0.0019 | 1264 ± 10 | 0.654 ± 0.069
308.15 K, x2 = 0 | 821.68 ± 0.84 | 1.4245 ± 0.0019 | 1283 ± 10 | 6.09 ± 0.5
308.15 K, x2 = 0.0606 | 822.28 ± 0.84 | 1.4292 ± 0.0019 | 1278 ± 10 | 5.084 ± 0.44
308.15 K, x2 = 0.1203 | 823.05 ± 0.83 | 1.4335 ± 0.0019 | 1273 ± 10 | 4.22 ± 0.37
308.15 K, x2 = 0.1798 | 823.96 ± 0.83 | 1.4378 ± 0.0019 | 1269 ± 10 | 3.49 ± 0.31
308.15 K, x2 = 0.2384 | 825.01 ± 0.82 | 1.4423 ± 0.0019 | 1265 ± 10 | 2.903 ± 0.26
308.15 K, x2 = 0.3132 | 826.61 ± 0.82 | 1.448 ± 0.0019 | 1260 ± 10 | 2.272 ± 0.21
308.15 K, x2 = 0.3915 | 828.57 ± 0.81 | 1.4539 ± 0.0019 | 1255 ± 10 | 1.741 ± 0.16
308.15 K, x2 = 0.4515 | 830.4 ± 0.8 | 1.4585 ± 0.0019 | 1252 ± 10 | 1.451 ± 0.14
308.15 K, x2 = 0.526 | 832.98 ± 0.79 | 1.4642 ± 0.0019 | 1248 ± 10 | 1.174 ± 0.11
308.15 K, x2 = 0.5849 | 835.32 ± 0.78 | 1.4689 ± 0.0019 | 1245 ± 10 | 1.02 ± 0.1
308.15 K, x2 = 0.6557 | 838.62 ± 0.77 | 1.4743 ± 0.0019 | 1242 ± 10 | 0.881 ± 0.088
308.15 K, x2 = 0.726 | 842.36 ± 0.76 | 1.4793 ± 0.0019 | 1240 ± 10 | 0.785 ± 0.08
308.15 K, x2 = 0.7937 | 846.49 ± 0.75 | 1.4839 ± 0.0019 | 1239 ± 10 | 0.713 ± 0.074
308.15 K, x2 = 0.8592 | 850.99 ± 0.73 | 1.4879 ± 0.0019 | 1240 ± 10 | 0.659 ± 0.069
308.15 K, x2 = 0.9299 | 856.56 ± 0.71 | 1.4913 ± 0.0019 | 1243 ± 10 | 0.605 ± 0.065
